Data reported in patent publication US9844542B2, “Substituted imidazopyridine and triazolopyridine compounds as negative allosteric modulators of mGluR5” (Vanderbilt University, priority 2013, dated 2017).

Key:
male Harlan CD-1 mice = settings: literature; cited from earlier work
mGluR4 = mGluR4 (Homo sapiens, UniProt Q14833); settings: cited from earlier work
[1] = tested on: N-methyl-D-aspartate (NMDA) receptor; settings: at higher concentrations; cited from earlier work
[2] = intravenous administration, rhesus monkeys; cited from earlier work
cytochrome P450 1A2 = target: T1, cytochrome P450 1A2 (Homo sapiens, UniProt P05177); settings: cited from earlier work
T1 sequence (P05177 1-516): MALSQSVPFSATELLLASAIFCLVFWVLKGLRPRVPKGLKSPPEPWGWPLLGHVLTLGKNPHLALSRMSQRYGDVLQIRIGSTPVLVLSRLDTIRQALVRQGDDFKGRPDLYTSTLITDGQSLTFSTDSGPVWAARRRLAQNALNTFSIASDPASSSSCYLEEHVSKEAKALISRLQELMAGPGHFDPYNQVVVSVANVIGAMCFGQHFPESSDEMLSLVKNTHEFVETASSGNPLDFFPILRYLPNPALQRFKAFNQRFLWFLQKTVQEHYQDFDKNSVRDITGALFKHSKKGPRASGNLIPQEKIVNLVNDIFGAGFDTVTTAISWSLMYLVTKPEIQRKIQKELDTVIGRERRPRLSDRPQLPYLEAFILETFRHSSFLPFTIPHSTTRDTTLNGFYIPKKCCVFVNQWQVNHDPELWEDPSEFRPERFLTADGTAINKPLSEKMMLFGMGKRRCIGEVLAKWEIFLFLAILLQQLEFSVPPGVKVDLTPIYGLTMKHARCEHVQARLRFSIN

rat mGluR5 = target: T2, rat mGluR5 (Rattus norvegicus, UniProt P31424); experiment: mGluR5 calcium mobilization assay (FDSS, Fluo-4) in HEK 293A cells stably expressing rat mGluR5; assay type: cell-based; settings: HEK cells transfected with rat mGluR5; antagonism of glutamate EC80 response; ± = standard error of at least three experiments
T2 construct: expressed in transfected cells
T2 sequence (P31424 21-1171 isoform P31424-2 limits assumed): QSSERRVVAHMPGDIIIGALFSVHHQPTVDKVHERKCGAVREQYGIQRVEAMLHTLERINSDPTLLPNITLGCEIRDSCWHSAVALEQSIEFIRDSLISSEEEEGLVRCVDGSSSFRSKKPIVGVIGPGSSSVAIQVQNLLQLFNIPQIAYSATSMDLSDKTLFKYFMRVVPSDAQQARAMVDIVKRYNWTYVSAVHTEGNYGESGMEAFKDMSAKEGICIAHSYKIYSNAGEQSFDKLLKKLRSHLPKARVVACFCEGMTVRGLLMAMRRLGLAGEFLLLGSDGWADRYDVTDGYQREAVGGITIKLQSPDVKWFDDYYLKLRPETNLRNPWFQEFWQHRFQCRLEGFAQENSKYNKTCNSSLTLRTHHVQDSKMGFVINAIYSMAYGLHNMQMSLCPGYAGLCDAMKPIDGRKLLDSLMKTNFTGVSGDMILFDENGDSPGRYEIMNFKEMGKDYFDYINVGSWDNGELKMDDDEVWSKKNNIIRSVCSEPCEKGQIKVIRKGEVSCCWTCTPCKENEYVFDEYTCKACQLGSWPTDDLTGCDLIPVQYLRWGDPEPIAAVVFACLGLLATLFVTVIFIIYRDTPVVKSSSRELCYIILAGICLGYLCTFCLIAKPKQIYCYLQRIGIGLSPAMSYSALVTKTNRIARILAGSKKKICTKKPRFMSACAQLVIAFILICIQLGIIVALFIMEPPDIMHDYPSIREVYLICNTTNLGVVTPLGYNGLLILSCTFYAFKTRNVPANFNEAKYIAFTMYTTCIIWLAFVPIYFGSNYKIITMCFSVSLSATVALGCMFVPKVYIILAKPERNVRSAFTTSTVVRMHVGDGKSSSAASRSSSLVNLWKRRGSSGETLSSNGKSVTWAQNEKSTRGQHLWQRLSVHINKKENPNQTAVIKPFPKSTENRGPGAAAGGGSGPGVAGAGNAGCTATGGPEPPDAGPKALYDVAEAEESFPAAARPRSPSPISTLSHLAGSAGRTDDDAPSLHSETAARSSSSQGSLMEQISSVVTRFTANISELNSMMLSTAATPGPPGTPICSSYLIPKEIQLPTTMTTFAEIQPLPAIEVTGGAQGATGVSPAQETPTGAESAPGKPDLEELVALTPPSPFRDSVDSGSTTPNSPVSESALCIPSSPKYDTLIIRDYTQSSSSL
Experimental: Human embryonic kidney (HEK) cells transfected with rat or human mGluR5 were plated in clear bottom assay plates for assay in a Functional Drug Screening System (FDSS). The cells were loaded with a Ca^2+-sensitive fluorescent dye (e.g., Fluo-4), and the plates were washed and placed in the FDSS instrument. Test compound was applied to cells 3 seconds after baseline readings were taken. Cells were incubated with the test compounds for 140 seconds and then stimulated with an EC20 concentration of an mGluR5 agonist (e.g., glutamate, 3,5-dihydroxyphenylglycine, or quisqualate); 60-80 seconds later an EC80 concentration of agonist was added and readings taken for an additional 40 seconds. Data were collected at 1 Hz. […] Concentration response curves were generated using a four parameter logistical equation.
The above described assay was operated in two modes. In the first mode (utilizing a triple add protocol), a range of concentrations of the present compounds were added to cells, followed by two single fixed concentrations of agonist (EC20 followed by EC80). If a compound acted as a potentiator, an EC50 value for potentiation of the EC20 response and a maximum extent of potentiation by the compound at this concentration of agonist was determined by non-linear curve fitting. If a compound acted as an antagonist, an IC50 value for antagonism of the EC80 response and a maximum extent of antagonism by the compound at this concentration of agonist was determined by non-linear curve fitting. In the second mode (utilizing a double add protocol), several fixed concentrations of the present compounds were added to various wells on a plate, followed by a range of concentrations of agonist for each concentration of present compound; the EC50 values for the agonist at each concentration of compound were determined by nonlinear curve fitting. A decrease in the EC50 value of the agonist with increasing concentrations of the present compounds (a leftward shift of the agonist concentration-response curve) is an indication of the degree of mGluR5 positive allosteric modulation at a given concentration of the present compound. An increase in the EC50 value of the agonist with increasing concentrations of the present compounds (a rightward shift of the agonist concentration response curve) is an indication of the degree of mGluR5 antagonism at a given concentration of the present compound. The second mode also indicates whether the present compounds also affect the maximum response to mGluR5 to agonists.
The mGluR5 activity was determined using the calcium mobilization assays in human embryonic kidney cells as described herein below, wherein the human embryonic kidney cells were transfected with rat mGluR5. The mGluR5 activity data for some compounds are shown as the average of at least three experiments with the standard error in these cases. If no error is indicated for the mGluR5 activity, the values given represent the results from a single experiment or the average of two experiments. The compounds in Table 1 were synthesized with methods identical or analogous to those shown herein. The requisite starting materials were commercially available, described in the literature, or readily synthesized by one skilled in the art of organic synthesis.
GluMax is the amplitude of response in the presence of 30 μM test compound as a percentage of maximal response (100 μM glutamate). Partial antagonists display concentration-response curves (CRCs) that plateau above 10%.
The preparation of rat mGluR5 stable cell-lines is as previously described (e.g. see Romano et al. J Biol. Chem. 1996 Nov. 8; 271(45):28612-6).

Sequence of mGluR4 (Q14833 33-912): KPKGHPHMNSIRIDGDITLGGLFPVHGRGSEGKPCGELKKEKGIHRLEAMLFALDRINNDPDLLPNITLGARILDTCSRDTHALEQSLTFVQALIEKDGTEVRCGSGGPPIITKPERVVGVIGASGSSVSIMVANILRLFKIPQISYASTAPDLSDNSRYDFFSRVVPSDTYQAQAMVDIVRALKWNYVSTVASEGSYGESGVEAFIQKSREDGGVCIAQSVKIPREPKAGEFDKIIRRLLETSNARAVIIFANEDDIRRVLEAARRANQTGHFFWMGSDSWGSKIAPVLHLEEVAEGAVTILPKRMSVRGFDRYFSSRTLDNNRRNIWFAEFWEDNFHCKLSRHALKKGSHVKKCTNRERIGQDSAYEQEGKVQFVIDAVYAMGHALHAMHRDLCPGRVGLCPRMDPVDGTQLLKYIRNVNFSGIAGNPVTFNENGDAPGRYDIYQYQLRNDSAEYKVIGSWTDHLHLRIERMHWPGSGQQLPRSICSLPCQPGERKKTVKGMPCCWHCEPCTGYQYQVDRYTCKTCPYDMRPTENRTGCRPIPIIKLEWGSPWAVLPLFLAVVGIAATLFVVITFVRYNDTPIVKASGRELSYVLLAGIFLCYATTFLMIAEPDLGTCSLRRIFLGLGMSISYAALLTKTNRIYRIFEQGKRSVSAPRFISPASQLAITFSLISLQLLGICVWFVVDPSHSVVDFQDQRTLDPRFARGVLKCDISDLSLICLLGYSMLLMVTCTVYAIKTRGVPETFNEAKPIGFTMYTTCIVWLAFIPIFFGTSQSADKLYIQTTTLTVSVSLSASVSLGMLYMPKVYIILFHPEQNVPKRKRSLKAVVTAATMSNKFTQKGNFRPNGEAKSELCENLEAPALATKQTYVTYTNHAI

Row | IC50 (rat mGluR5) [nM] | Compound | effect in marble burying model (male Harlan CD-1 mice) | other results
1 | – | CN1CC(=O)N=C1NC(=O)Nc1cccc(Cl)c1 [fenobam, 1-(3-chlorophenyl)-3-(1-methyl-4-oxo-4,5-dihydro-1H-imidazol-2-yl)urea] | effective | –
2 | – | Cc1cccc(C#Cc2ccccc2)n1 [MPEP, 2-methyl-6-(phenylethynyl) pyridine] | effective | activity at mGluR4 (mGluR4): positive allosteric modulator; NMDA receptor activity [1]: directly inhibit
3 | – | Cc1nc(C#Cc2cccnc2)cs1 [MTEP, 3-[(2-methyl-1,3-thiazol-4-yl)ethynyl]pyridine] | – | clearance [2]: efficiently cleared; cytochrome P450 1A2 inhibition (cytochrome P450 1A2): potent inhibitor
4 | 51 | N#Cc1cncc(Oc2cc(C(=O)Nc3ccc(F)cn3)c3nccn3c2)c1 | – | –
5 | 45 | [2H]c1nc(NC(=O)c2cc(Oc3cncc(F)c3)cn3cnnc23)c([2H])c([2H])c1[2H] | – | –
6 | 49 | Cc1csc(NC(=O)c2cc(Oc3cncc(F)c3)cn3ncnc23)n1 | – | –
